# Experimental data as given in patent US11944622B2 (Annapurna Bio, Inc., priority 2018, dated 2024).
# Molecular target: T1, APJ Receptor (Homo sapiens, UniProt P35414)
# T1 sequence (P35414 1-380): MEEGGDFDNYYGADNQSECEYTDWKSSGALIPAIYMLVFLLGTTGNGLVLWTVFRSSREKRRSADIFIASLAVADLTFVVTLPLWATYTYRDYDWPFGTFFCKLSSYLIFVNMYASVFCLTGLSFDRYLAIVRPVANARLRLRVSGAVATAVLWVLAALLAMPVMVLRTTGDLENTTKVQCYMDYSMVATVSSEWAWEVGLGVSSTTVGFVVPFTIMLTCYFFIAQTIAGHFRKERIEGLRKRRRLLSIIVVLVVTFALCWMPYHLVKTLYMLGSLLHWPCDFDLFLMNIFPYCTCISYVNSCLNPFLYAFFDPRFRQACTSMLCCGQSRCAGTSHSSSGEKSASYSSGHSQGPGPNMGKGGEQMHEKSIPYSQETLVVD
# Assay: APJ cAMP assay (DiscoverX enzyme fragment complementation; inhibition of forskolin-stimulated cAMP)
# Type: cell-based
# Conditions: CHO-K1 cell line stably expressing the APJ Receptor; EC80 forskolin; 30 minutes at 37° C.; read-out: Potency Range (APJ cAMP EC50)
# From the text: Activation of APJ receptor is known to inhibit forskolin-stimulated cyclic AMP (cAMP) production in cells in a pertussis toxin-sensitive manner which indicates primary coupling to the GαI subunit of the G protein heterotrimeric complex. In addition to signaling through G protein and inhibition of cAMP, APJ receptor activation also results in β-arrestin recruitment, receptor internalization and activation of extracellular-regulated kinases (ERKs).
# In order to optimize functional activity directed toward Gi coupling we utilized a CHO-K 1 cell line developed by DiscoverX stably expressing the APJ Receptor. Cells expressing APJR receptor were plated in a 384-well microtiter plates and incubated overnight at 37° C. with 5% CO2 to allow the cells to attach and grow. Media was then aspirated from the cells and replaced with 15 uL 2:1 Hanks Balanced Salt Solution (HBSS)/10 mM Hepes:cAMP XS+Ab reagent. Five microliters (5 uL) of previously generated compound sample stocks at 4× final concentration in assay buffer containing 4× EC80 forskolin were then added to the cells and allowed to incubate at 37° C. for 30 minutes.
# After incubation the assay signal was generated using a technology termed enzyme fragment complementation (EFC). In EFC the enzyme B-galactosidase is split into two complementary portions (EA and ED). The fragment ED is fused to cAMP and in the assay format competes with endogenous cAMP for binding to a cAMP specific antibody. Activated B-Gal is formed when exogenous EA fragment binds to free ED-cAMP (not bound to cAMP specific antibody). Activated enzyme levels are detected through conversion of B-gal chemiluminescent substrate which generates a detectable luminescence signal and read on standard microtiter plate.
# The methodology for detection of cAMP using EFC requires incubation with 20 uL of cAMP XS+ED/CL lysis cocktail for one hour followed by incubation with 20 uL cAMP XS+EA reagent for three hours at room temperature. Microplates were read following signal generation with a PerkinElmer Envision instrument utilizing chemiluminescent signal detection.
# Compound activity was analyzed using CBIS data analysis suite (ChemInnovation, CA). Percentage activity was calculated using the following formula: % Activity=100%×(1−(mean RLU of test sample−mean RLU of Max control)/(mean RLU of vehicle control−mean RLU of Max control))
row,EC50 [nM],SMILES
1,< 1,"CCOc1cccc(-c2nc3ncc(NS(=O)(=O)Cc4ncccn4)nc3n2-c2c(OC)cccc2OC)n1 [Example 28, N-(1-(2,6-dimethoxyphenyl)-2-(6-ethoxypyridin-2-yl)-1H-imidazo[4,5-b]pyrazin-6-yl)-1-(pyrimidin-2-yl)methanesulfonamide]"
2,< 1,"CCOc1cccc(-c2nc3ncc(NS(=O)(=O)CCC4CC4)nc3n2-c2c(OC)cccc2OC)n1 [Example 29, 2-cyclopropyl-N-(1-(2,6-dimethoxyphenyl)-2-(6-ethoxypyridin-2-yl)-1H-imidazo[4,5-b]pyrazin-6-yl)ethanesulfonamide]"
3,1 to 100,"CCOc1cccc(-c2nc3ncc(NS(=O)(=O)C4COC4)nc3n2-c2c(OC)cccc2OC)n1 [Example 30, N-(1-(2,6-dimethoxyphenyl)-2-(6-ethoxypyridin-2-yl)-1H-imidazo[4,5-b]pyrazin-6-yl)oxetane-3-sulfonamide]"
4,1 to 100,"CCOc1cccc(-c2nc3ncc(NS(=O)(=O)C4CCC4)nc3n2-c2c(OC)cccc2OC)n1 [Example 31, N-(1-(2,6-dimethoxyphenyl)-2-(6-ethoxypyridin-2-yl)-1H-imidazo[4,5-b]pyrazin-6-yl)cyclobutanesulfonamide]"
5,100 to 10000,"CCOc1cccc(-c2nc3ncc(N(C)S(C)(=O)=O)nc3n2-c2c(OC)cccc2OC)n1 [Example 32, N-(1-(2,6-dimethoxyphenyl)-2-(6-ethoxypyridin-2-yl)-1H-imidazo[4,5-b]pyrazin-6-yl)-N-methylmethanesulfonamide]"
6,1 to 100,"CCOc1cccc(-c2nc3ncc(NS(=O)(=O)[C@H]4C[C@@H](O)C4)nc3n2-c2c(OC)cccc2OC)n1 [Example 33, cis-N-(1-(2,6-dimethoxyphenyl)-2-(6-ethoxypyridin-2-yl)-1H-imidazo[4,5-b]pyrazin-6-yl)-3-hydroxycyclobutane-1-sulfonamide]"
7,1 to 100,"CCOc1cccc(-c2nc3ncc(NS(=O)(=O)[C@H]4C[C@H](O)C4)nc3n2-c2c(OC)cccc2OC)n1 [Example 34, trans-N-(1-(2,6-dimethoxyphenyl)-2-(6-ethoxypyridin-2-yl)-1H-imidazo[4,5-b]pyrazin-6-yl)-3-hydroxycyclobutane-1-sulfonamide]"
8,1 to 100,"CCOc1cccc(-c2nc3ncc(NS(=O)(=O)Cc4cncnc4)nc3n2-c2c(OC)cccc2OC)n1 [Example 35, N-(1-(2,6-dimethoxyphenyl)-2-(6-ethoxypyridin-2-yl)-1H-imidazo[4,5-b]pyrazin-6-yl)-1-(pyrimidin-5-yl)methanesulfonamide]"
9,1 to 100,"CCOc1cccc(-c2nc3ncc(NS(=O)(=O)C4CCOCC4)nc3n2-c2c(OC)cccc2OC)n1 [Example 36, N-(1-(2,6-dimethoxyphenyl)-2-(6-ethoxypyridin-2-yl)-1H-imidazo[4,5-b]pyrazin-6-yl)tetrahydro-2H-pyran-4-sulfonamide]"
10,< 1,"CCOc1cccc(-c2nc3ncc(NS(=O)(=O)N4CCOCC4)nc3n2-c2c(OC)cccc2OC)n1 [Example 37, N-(1-(2,6-dimethoxyphenyl)-2-(6-ethoxypyridin-2-yl)-1H-imidazo[4,5-b]pyrazin-6-yl)morpholine-4-sulfonamide]"
11,1 to 100,"CCOc1cccc(-c2nc3ncc(NS(=O)(=O)CC4CCNCC4)nc3n2-c2c(OC)cccc2OC)n1 [Example 38, N-(1-(2,6-dimethoxyphenyl)-2-(6-ethoxypyridin-2-yl)-1H-imidazo[4,5-b]pyrazin-6-yl)-1-(piperidin-4-yl)methanesulfonamide]"
12,< 1,"CCOc1cccc(-c2nc3ncc(NS(=O)(=O)[C@H]4CC[C@H](O)CC4)nc3n2-c2c(OC)cccc2OC)n1 [Example 39, trans-N-(1-(2,6-dimethoxyphenyl)-2-(6-ethoxypyridin-2-yl)-1H-imidazo[4,5-b]pyrazin-6-yl)-4-hydroxycyclohexane-1-sulfonamide]"
13,1 to 100,"CCOc1cccc(-c2nc3ncc(NS(=O)(=O)[C@H]4CC[C@@H](O)CC4)nc3n2-c2c(OC)cccc2OC)n1 [Example 40, cis-N-(1-(2,6-dimethoxyphenyl)-2-(6-ethoxypyridin-2-yl)-1H-imidazo[4,5-b]pyrazin-6-yl)-4-hydroxycyclohexane-1-sulfonamide]"
